Here are results for two compounds from patent publication US7084301B2 (Ranbaxy Laboratories Limited, priority 2003, dated 2006).

Structures are written as SMILES.

As a reminder, the melting point is the temperature, or range, at which the solid turns liquid.

The target in one series is T1, 5-HT1A receptors (Homo sapiens, UniProt P08908).
T1 sequence (P08908 1-422): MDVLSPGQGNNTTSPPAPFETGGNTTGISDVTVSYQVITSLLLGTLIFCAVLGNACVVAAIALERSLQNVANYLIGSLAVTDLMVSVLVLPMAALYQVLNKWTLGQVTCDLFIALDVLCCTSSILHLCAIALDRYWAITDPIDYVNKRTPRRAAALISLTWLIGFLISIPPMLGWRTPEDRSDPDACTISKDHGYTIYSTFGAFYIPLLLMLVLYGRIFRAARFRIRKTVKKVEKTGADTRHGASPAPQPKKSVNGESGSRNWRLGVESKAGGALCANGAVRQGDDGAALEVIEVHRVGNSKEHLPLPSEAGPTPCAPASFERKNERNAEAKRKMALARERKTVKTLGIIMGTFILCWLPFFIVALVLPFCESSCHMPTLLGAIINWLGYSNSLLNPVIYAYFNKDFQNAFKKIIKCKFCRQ
Particulars: reported, J. Med. Chem. 2000; cited from earlier work.

The next series has as its target T2, human α1A-adrenoceptors (Homo sapiens, UniProt P35348).
T2 sequence (P35348 1-466): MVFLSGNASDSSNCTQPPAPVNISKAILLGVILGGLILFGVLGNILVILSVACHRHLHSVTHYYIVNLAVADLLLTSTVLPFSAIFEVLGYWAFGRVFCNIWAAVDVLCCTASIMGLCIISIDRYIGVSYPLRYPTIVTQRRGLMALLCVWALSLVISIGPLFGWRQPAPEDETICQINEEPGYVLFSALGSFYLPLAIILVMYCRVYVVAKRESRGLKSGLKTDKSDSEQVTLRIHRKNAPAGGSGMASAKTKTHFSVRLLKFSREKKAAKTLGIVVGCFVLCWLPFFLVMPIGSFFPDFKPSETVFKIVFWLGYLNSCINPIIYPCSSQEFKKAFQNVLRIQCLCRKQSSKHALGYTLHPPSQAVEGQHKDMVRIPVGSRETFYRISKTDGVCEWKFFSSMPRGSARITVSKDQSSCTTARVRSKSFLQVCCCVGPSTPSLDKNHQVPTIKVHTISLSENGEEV
As to the kind of experiment: Radioligand-receptor binding assay, human recombinant α1A-adrenoceptor, [3H]prazosin. The procedure:
Chinese hamster ovary (CHO) cells which had been stably transfected with human α1A, α1B, or α1D-adrenoceptors (Keffel et al., Biochem. Biophys. Res. Commun., 2000, 272, 906–11) were cultured in an atmosphere of 5% CO2/95% air at 37° C. in F-12 HAM medium supplemented with 10% heat-inactivated fetal calf serum, 1 mM glutamine, 100 U/ml penicillin and 0.1 mg/ml streptomycin. Selection pressure was maintained by regular addition of geneticin to the culture medium.
Competitive radioligand binding to the cloned subtypes of […] was performed using [^3H]prazosin as the radioligand as described by Michel et al, Br. J. Pharmacol., 98, 883–889 (1989) with minor modifications. Experiments were performed in binding buffer consisting of 50 mM Tris, 10 mM MgCl2 and 0.5 mM EDTA at pH 7.5 in a total assay volume of 1000 μl. The protein content typically was 40–60 μg/assay. The mixtures were incubated at 25° C. for 45 minutes. Incubations were terminated by rapid vacuum filtration over GF/C filters followed by two washes of the filters each with 10 ml ice-cold incubation buffer. Non-specific binding was defined as binding in the presence of 10 μM phentolamine.
The IC50 & Kd were estimated by using the non-linear curve fitting program using G Pad Prism software. The value of inhibition constant Ki was calculated from competitive binding studies by using Cheng & Prusoff equation [Cheng & Prusoff, Biochem. Pharmacol., 22, 3099–3108 (1973)], Ki=IC50/(1+L/Kd), where L is the concentration of [^3H] prazosin used in the particular experiment. Kd of [^3H] prazosin was determined from saturation binding studies. The values were tabulated as mean±SEM of pKi values, where pKi is the −log of Ki value.

In series [1] the target is T3, rat α1D-adrenoceptor (aorta) (Rattus norvegicus, UniProt P23944).
T3 sequence (P23944 1-561): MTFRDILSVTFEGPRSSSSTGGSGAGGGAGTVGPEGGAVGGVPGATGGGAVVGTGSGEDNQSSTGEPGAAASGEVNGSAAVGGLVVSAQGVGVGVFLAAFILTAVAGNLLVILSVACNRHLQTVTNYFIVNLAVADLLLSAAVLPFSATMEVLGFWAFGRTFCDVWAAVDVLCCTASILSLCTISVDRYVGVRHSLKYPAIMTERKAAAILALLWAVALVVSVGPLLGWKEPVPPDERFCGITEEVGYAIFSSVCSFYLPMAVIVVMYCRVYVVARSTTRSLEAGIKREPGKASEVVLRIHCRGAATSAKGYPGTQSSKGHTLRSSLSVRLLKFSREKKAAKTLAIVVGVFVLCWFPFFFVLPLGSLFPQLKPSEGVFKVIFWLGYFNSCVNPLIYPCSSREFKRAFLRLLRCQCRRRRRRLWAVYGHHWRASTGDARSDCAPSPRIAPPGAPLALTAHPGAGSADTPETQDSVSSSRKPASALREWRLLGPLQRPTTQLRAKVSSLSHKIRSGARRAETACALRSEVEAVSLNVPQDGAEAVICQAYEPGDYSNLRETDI
As to the kind of experiment: In-vitro functional study, agonist-induced contractile response on isolated rat aorta. It counts as biochemical. The method, then:
Aorta, prostate and spleen tissues were isolated from urethane anaesthetized (1.5 gm/kg) male wistar rats. Isolated tissues were mounted in organ bath containing Krebs Henseleit buffer of following compostion (mM): NaCl 118; KCl 4.7; CaCl2 2.5; MgSO4.7H2O 1.2; NaHCO3 25; KH2PO4 1.2; glucose 11.5. Buffer was maintained at 37° C. and aerated with a mixture of 95% O2 and 5% CO2. A resting tension of 2 g (aorta) or 1 g (spleen and prostate) was applied to tissues. Contractile response was monitored using a force displacement transducer and recorded on chart recorders. Tissues were allowed to equilibrate for 2 hours. At the end of equilibration period, concentration response curves to norepinephrine (aorta) and phenylepinephrine (spleen and prostate) were obtained in absence and presence of tested compound (at concentrations of […]). Antagonist affinities were calculated and expressed as pKB vales in Table II.
To compare the differences in pKB at the α1-arenrenoceptor subtypes one-way ANOVA followed by Dunett ‘t’ test was applied. A p<0.05 was considered statistically significant.

With `CCOc1ccccc1OCCNC(C)Cc1ccc(OC)c(S(N)(=O)=O)c1` (single isomer, unassigned; (-)) [Tamsulosin, (−) isomer of 5-[2-[2-(2-ethoxyphenoxy)ethylamino]-2-methylethyl]-2-methoxybenzene sulfonamide, reference compound], the “affinity for 5-HT1A receptors” value at 5-HT1A receptors is reported as “subnanomolar affinity”.

Compound `CCOc1ccccc1OCCN[C@H](C)Cc1ccc(O)c(S(N)(=O)=O)c1` [Formula I, R (−)-5-[2-[[2-(2-ethoxyphenoxy)ethyl]amino]propyl]-2-hydroxybenzenesulfonamide] came in with a melting point of 159.5 °C. The “fold greater affinity for α1A-adrenoreceptor subtype than the corresponding (S)-isomer” value at human α1A-adrenoceptors (human recombinant receptors) was found to be 102 fold. Moreover, the Ki on human α1A-adrenoceptors (human recombinant receptors in CHO cells, mean ± SEM, read-out: pKi α1A (converted)) was 0.0219 nM. Also, in series [1], the Kb is 0.00589 nM.
